From patent US20240336613A1, “HETEROARYL COMPOUNDS FOR TREATING HUNTINGTON'S DISEASE” (PTC THERAPEUTICS, INC., priority 2021, published 2024)
Where two headings read alike, the source gives them in different places.

Test system: Huntingtin protein (HTT)
Assay: Endogenous Huntingtin Protein Assay (MSD electrochemiluminescence)
Format: cell-based
Settings: for IC50: read-out: IC50
Description: Compounds of Formula (I) were tested using the Meso Scale Discovery (MSD) Assay provided in International Application No. PCT/US2016/066042, filed on Dec. 11, 2016 and claiming priority to United States Provisional Application U.S. 62/265,652 filed on Dec. 10, 2015, the entire contents of which are incorporated herein by reference.
The Endogenous Huntingtin Protein assay used in Example 1 was developed using the ELISA-based MSD electrochemiluminescence assay platform.
Meso Scale Discovery (MSD) 96-well or 384-well plates were coated overnight at 4° C. with MW1 (expanded polyglutamine) or MAB2166 monoclonal antibody (for capture) at a concentration of 1 μg/mL in PBS (30 μL per well). Plates were then washed three times with 300 μL wash buffer (0.05% Tween-20 in PBS) and blocked (100 μL blocking buffer; 5% BSA in PBS) for 4-5 hours at room temperature with rotational shaking and then washed three times with wash buffer.
Samples (25 μL) were transferred to the antibody-coated MSD plate and incubated overnight at 4° C. After removal of the lysates, the plate was washed three times with wash buffer, and 25 μL of #5656S (Cell signaling; rabbit monoclonal) secondary antibody (diluted to 0.25 μg/mL in 0.05% Tween-20 in blocking buffer) was added to each well and incubated with shaking for 1 Hour at room temperature. Following incubation with the secondary antibody, the wells were rinsed with wash buffer after which 25 μL of goat anti-rabbit SULFO TAG secondary detection antibody (required aspect of the MSD system) (diluted to 0.25 μg/mL in 0.05% Tween-20 in blocking buffer) was added to each well and incubated with shaking for 1 hour at room temperature. After rinsing three times with wash buffer, 150 μL of read buffer T with surfactant (MSD) were added to each empty well, and the plate was imaged on a SI 6000 imager (MSD) according to manufacturers' instructions provided for 96- or 384-well plates.

[1] = Table 1, Endogenous Huntingtin Protein Assay

Compound	IC50 [1] [nM]	also measured
2-{7-[(1S,2R,3R,5R)-2-fluoro-1,5-dimethyl-8-azabicyclo[3.2.1]octan-3-yl]-7H-pyrrolo[2,3-c]pyridazin-3-yl}-5-(1H-1,2,3-triazol-1-yl)phenol and 2-{7-[(1R,2S,3S,5S)-2-fluoro-1,5-dimethyl-8-azabicyclo[3.2.1]octan-3-yl]-7H-pyrrolo[2,3-c]pyridazin-3-yl}-5-(1H-1,2,3-triazol-1-yl)phenol [Cpd 21]	< 100	
2-{7-[(1S,2S,3R,5R)-2-fluoro-8-azabicyclo[3.2.1]octan-3-yl]-7H-pyrrolo[2,3-c]pyridazin-3-yl}-5-(1H-1,2,3-triazol-1-yl)phenol and 2-{7-[(1R,2R,3S,5S)-2-fluoro-8-azabicyclo[3.2.1]octan-3-yl]-7H-pyrrolo[2,3-c]pyridazin-3-yl}-5-(1H-1,2,3-triazol-1-yl)phenol [Cpd 20]	< 100	
2-{7-[(3R,4S)-3-fluoro-2,2,6,6-tetramethylpiperidin-4-yl]-7H-pyrrolo[2,3-c]pyridazin-3-yl}-5-(1H-1,2,3-triazol-1-yl)phenol and 2-{7-[(3S,4R)-3-fluoro-2,2,6,6-tetramethylpiperidin-4-yl]-7H-pyrrolo[2,3-c]pyridazin-3-yl}-5-(1H-1,2,3-triazol-1-yl)phenol [Cpd 3]	< 100	
2-{7-[(3S,4S)-3-fluoro-2,2,6,6-tetramethylpiperidin-4-yl]-7H-pyrrolo[2,3-c]pyridazin-3-yl}-5-(1H-1,2,3-triazol-1-yl)phenol and 2-{7-[(3R,4R)-3-fluoro-2,2,6,6-tetramethylpiperidin-4-yl]-7H-pyrrolo[2,3-c]pyridazin-3-yl}-5-(1H-1,2,3-triazol-1-yl)phenol [Cpd 2]	< 100	
2-{7-[(4S,5R)-5-fluoro-2,2-dimethylpiperidin-4-yl]-7H-pyrrolo[2,3-c]pyridazin-3-yl}-5-(1H-1,2,3-triazol-1-yl)phenol and 2-{7-[(4R,5S)-5-fluoro-2,2-dimethylpiperidin-4-yl]-7H-pyrrolo[2,3-c]pyridazin-3-yl}-5-(1H-1,2,3-triazol-1-yl)phenol [Cpd 12]	< 100	
2-{7-[(8R,9R)-9-fluoro-5-azaspiro[3.5]nonan-8-yl]-7H-pyrrolo[2,3-c]pyridazin-3-yl}-5-(1H-1,2,3-triazol-1-yl)phenol and 2-{7-[(8S,9S)-9-fluoro-5-azaspiro[3.5]nonan-8-yl]-7H-pyrrolo[2,3-c]pyridazin-3-yl}-5-(1H-1,2,3-triazol-1-yl)phenol [Cpd 23]	< 100	
2-{7-[(8S,9R)-8-fluoro-6-azaspiro[4.5]decan-9-yl]-7H-pyrrolo[2,3-c]pyridazin-3-yl}-5-(1H-1,2,3-triazol-1-yl)phenol and 2-{7-[(8R,9S)-8-fluoro-6-azaspiro[4.5]decan-9-yl]-7H-pyrrolo[2,3-c]pyridazin-3-yl}-5-(1H-1,2,3-triazol-1-yl)phenol [Cpd 25]	100 to 500	
5-(1H-1,2,3-triazol-1-yl)-2-{7-[(4RS)-1,2,2-trimethylpiperidin-4-yl]-7H-pyrrolo[2,3-c]pyridazin-3-yl}phenol [Cpd 6]	500 to 1000	
CC1(C)CC(n2ccc3cc(-c4ccc(-n5ccnn5)cc4O)nnc32)CCN1 (racemic) [Cpd 5, 2-{7-[(4RS)-2,2-dimethylpiperidin-4-yl]-7H-pyrrolo[2,3-c]pyridazin-3-yl}-5-(1H-1,2,3-triazol-1-yl)phenol]	< 100	
CC1(C)CC(n2ccc3cc(-c4ccc(-n5ccnn5)cc4O)nnc32)CC(C)(C)N1 [Cpd 1, 2-[7-(2,2,6,6-tetramethylpiperidin-4-yl)-7H-pyrrolo[2,3-c]pyridazin-3-yl]-5-(1H-1,2,3-triazol-1-yl)phenol]	< 100	IC50 (Table 2, comparison compounds tested according to the assay of Example 1): 0.8 nM; improvement in potency (compared with Cpd 26 in WO2020/005873 (1H-pyrazole replaced with 1H-1,2,3-triazole)): over 8 fold; improvement in potency (compared with Cpd 72 in WO2020/005873 (3H-[1,2,3]-triazolo[4,5-c]pyridazine core)): 223 fold
Oc1cc(-n2ccnn2)ccc1-c1cc2ccn(C3CCNC4(CC4)C3)c2nn1 (centres unmarked) [Cpd 4, 2-[7-(4-azaspiro[2.5]octan-7-yl)-7H-pyrrolo[2,3-c]pyridazin-3-yl]-5-(1H-1,2,3-triazol-1-yl)phenol]	< 100	
